Values quoted from earlier work, collected in patent US20060253014A1 (priority 2003, published 2006).
Where two headings read alike, the source gives them in different places.

System: inbred mouse strains

| SMILES | Resistant Stains (high AD50) (mouse, in vivo) | Sensitive Strains (low AD50) (mouse, in vivo) | Sensitive Strains (low AD50) (murine strains, AD50 = the half-maximal antinociceptive dose) |
| --- | --- | --- | --- |
| Cc1c(C(=O)c2cccc3ccccc23)c2cccc3c2n1[C@H](CN1CCOCC1)CO3 [WIN 55, 212-2] | AKR, C57BL/10, C58 | 129P3, A, DBA/2 | – |
| CN1CC[C@]23c4c5ccc(O)c4O[C@H]2[C@@H](O)C=C[C@H]3[C@H]1C5 [morphine] | – | 129P3, C3H/He, DBA/2 | – |
| Clc1cccc(Cl)c1N=C1NCCN1 [Clonidine, clonidine] | – | – | 129P3, A, AKR, |
| Clc1ccc(C2CC3CCC2N3)cn1 (stereo not drawn) [Epibetadine, epibatidine] | AKR, CBA, C57BL/10 | A, BALB/c | – |
